From the supplement of paper PMC4862054

Each molecule was assayed on DU-4475 (assay: normalised viability (% of control), CellTiter-Blue; higher = more viable cells (about 100 = DMSO control)). Conditions: 100 nM; incubation time: 72 h.
Method in brief: (§1)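 Compound dissolved in 5 µl medium was pre-loaded into 384-well plates, and breast cancer cell lines in 20 µl suspension were seeded on top and incubated 72 h. After adding 2.5 µl CellTiter-Blue reagent for 2 h at 37 °C, fluorescence was read at 560/590 nm. Plates were normalised to vehicle (100) and a positive kill control (0), with Z'-factor quality control. Each value is normalised viability at a single listed concentration from the series.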
Work on `C=C(c1ccc(C(=O)O)cc1)c1cc2c(cc1C)C(C)(C)CCC2(C)C` [Bexarotene] yielded a normalised viability of 103%.
`CCC1(c2ccc(N)cc2)CCC(=O)NC1=O` (stereo unspecified) [Aminoglutethimide] gave a normalised viability of 85.2%.
`Clc1ccc(Nc2nnc(Cc3ccncc3)c3ccccc23)cc1` [Vatalanib] gave a normalised viability of 99%.
`NCC(=O)CCC(=O)O` [Aminolevulinic acid] showed a normalised viability of 110%.

These molecules were tested on BT-549 in the same assay as above. Conditions: 1 nM; incubation time: 72 h.
Method in brief: as §1
With `CCN(CCCOc1ccc2c(Nc3cc(CC(=O)Nc4cccc(F)c4)[nH]n3)ncnc2c1)CCOP(=O)(O)O` [Barasertib] the normalised viability was 93.5%.
Molecule `CO[C@H]1/C=C\C=C(/C)C(=O)NC2=CC(=O)C(NCCN(C)C)=C(C[C@@H](C)C[C@H](OC)[C@H](O)[C@@H](C)/C=C(\C)[C@@H]1OC(N)=O)C2=O` [Alvespimycin] has a normalised viability of 104%.
For `NC(=O)Nc1cc(-c2cccc(F)c2)sc1C(=O)N[C@H]1CCCNC1` [AZD 7762], the normalised viability was 114%.

Same assay, conditions: 10 nM; incubation time: 72 h
`O=C1CCC(N2C(=O)c3ccccc3C2=O)C(=O)N1` (stereo unspecified) [Thalidomide] showed a normalised viability of 76.7%.
`C=C(c1ccc(C(=O)O)cc1)c1cc2c(cc1C)C(C)(C)CCC2(C)C` [Bexarotene] was tested, and the normalised viability was 89.5%.
Molecule `CCC1(c2ccc(N)cc2)CCC(=O)NC1=O` (stereo unspecified) [Aminoglutethimide] has a normalised viability of 84.2%.
`Clc1ccc(Nc2nnc(Cc3ccncc3)c3ccccc23)cc1` [Vatalanib] was tested, and the normalised viability was 87.3%.
With `NCC(=O)CCC(=O)O` [Aminolevulinic acid] the normalised viability was 85.6%.

Same assay, conditions: 100 nM; incubation time: 72 h
`CCN(CCCOc1ccc2c(Nc3cc(CC(=O)Nc4cccc(F)c4)[nH]n3)ncnc2c1)CCOP(=O)(O)O` [Barasertib] showed a normalised viability of 69.1%.
In the case of `CO[C@H]1/C=C\C=C(/C)C(=O)NC2=CC(=O)C(NCCN(C)C)=C(C[C@@H](C)C[C@H](OC)[C@H](O)[C@@H](C)/C=C(\C)[C@@H]1OC(N)=O)C2=O` [Alvespimycin], the normalised viability is reported as 33.5%.
For `NC(=O)Nc1cc(-c2cccc(F)c2)sc1C(=O)N[C@H]1CCCNC1` [AZD 7762], the normalised viability was 118%.

Same assay, conditions: 1000 nM; incubation time: 72 h
`O=C1CCC(N2C(=O)c3ccccc3C2=O)C(=O)N1` (stereo unspecified) [Thalidomide] showed a normalised viability of 91.5%.
Molecule `C=C(c1ccc(C(=O)O)cc1)c1cc2c(cc1C)C(C)(C)CCC2(C)C` [Bexarotene] has a normalised viability of 75.6%.
With `CCC1(c2ccc(N)cc2)CCC(=O)NC1=O` (stereo unspecified) [Aminoglutethimide] the normalised viability was 101%.
`Clc1ccc(Nc2nnc(Cc3ccncc3)c3ccccc23)cc1` [Vatalanib] gave a normalised viability of 88.2%.
For `NCC(=O)CCC(=O)O` [Aminolevulinic acid], the normalised viability was 84.1%.
`CCN(CCCOc1ccc2c(Nc3cc(CC(=O)Nc4cccc(F)c4)[nH]n3)ncnc2c1)CCOP(=O)(O)O` [Barasertib] gave a normalised viability of 69.8%.
`CO[C@H]1/C=C\C=C(/C)C(=O)NC2=CC(=O)C(NCCN(C)C)=C(C[C@@H](C)C[C@H](OC)[C@H](O)[C@@H](C)/C=C(\C)[C@@H]1OC(N)=O)C2=O` [Alvespimycin] gave a normalised viability of 21.2%.
`NC(=O)Nc1cc(-c2cccc(F)c2)sc1C(=O)N[C@H]1CCCNC1` [AZD 7762] gave a normalised viability of 35.5%.

Same assay, conditions: 10000 nM; incubation time: 72 h
`O=C1CCC(N2C(=O)c3ccccc3C2=O)C(=O)N1` (stereo unspecified) [Thalidomide] was tested, and the normalised viability was 81.7%.
With `C=C(c1ccc(C(=O)O)cc1)c1cc2c(cc1C)C(C)(C)CCC2(C)C` [Bexarotene] the normalised viability was 74.5%.
Work on `CCC1(c2ccc(N)cc2)CCC(=O)NC1=O` (stereo unspecified) [Aminoglutethimide] yielded a normalised viability of 76.4%.
`Clc1ccc(Nc2nnc(Cc3ccncc3)c3ccccc23)cc1` [Vatalanib] gave a normalised viability of 85.9%.
`NCC(=O)CCC(=O)O` [Aminolevulinic acid] showed a normalised viability of 90%.

Each molecule was assayed on CAL-85-1 in the same assay as above. Conditions: 0.3 nM; incubation time: 72 h.
Method in brief: as §1
In the case of `CCN(CCCOc1ccc2c(Nc3cc(CC(=O)Nc4cccc(F)c4)[nH]n3)ncnc2c1)CCOP(=O)(O)O` [Barasertib], the normalised viability is reported as 102%.
`CO[C@H]1/C=C\C=C(/C)C(=O)NC2=CC(=O)C(NCCN(C)C)=C(C[C@@H](C)C[C@H](OC)[C@H](O)[C@@H](C)/C=C(\C)[C@@H]1OC(N)=O)C2=O` [Alvespimycin] was tested, and the normalised viability was 111%.
Molecule `NC(=O)Nc1cc(-c2cccc(F)c2)sc1C(=O)N[C@H]1CCCNC1` [AZD 7762] has a normalised viability of 106%.

Same assay, conditions: 3 nM; incubation time: 72 h
Work on `O=C1CCC(N2C(=O)c3ccccc3C2=O)C(=O)N1` (stereo unspecified) [Thalidomide] yielded a normalised viability of 102%.
With `C=C(c1ccc(C(=O)O)cc1)c1cc2c(cc1C)C(C)(C)CCC2(C)C` [Bexarotene] the normalised viability was 94.9%.
With `CCC1(c2ccc(N)cc2)CCC(=O)NC1=O` (stereo unspecified) [Aminoglutethimide] the normalised viability was 104%.
Work on `Clc1ccc(Nc2nnc(Cc3ccncc3)c3ccccc23)cc1` [Vatalanib] yielded a normalised viability of 90%.
With `NCC(=O)CCC(=O)O` [Aminolevulinic acid] the normalised viability was 99.9%.
With `CCN(CCCOc1ccc2c(Nc3cc(CC(=O)Nc4cccc(F)c4)[nH]n3)ncnc2c1)CCOP(=O)(O)O` [Barasertib] the normalised viability was 89.8%.
For `CO[C@H]1/C=C\C=C(/C)C(=O)NC2=CC(=O)C(NCCN(C)C)=C(C[C@@H](C)C[C@H](OC)[C@H](O)[C@@H](C)/C=C(\C)[C@@H]1OC(N)=O)C2=O` [Alvespimycin], the normalised viability was 85.5%.
For `NC(=O)Nc1cc(-c2cccc(F)c2)sc1C(=O)N[C@H]1CCCNC1` [AZD 7762], the normalised viability was 98.6%.

Same assay, conditions: 10 nM; incubation time: 72 h
`CCN(CCCOc1ccc2c(Nc3cc(CC(=O)Nc4cccc(F)c4)[nH]n3)ncnc2c1)CCOP(=O)(O)O` [Barasertib] gave a normalised viability of 93.2%.
Work on `CO[C@H]1/C=C\C=C(/C)C(=O)NC2=CC(=O)C(NCCN(C)C)=C(C[C@@H](C)C[C@H](OC)[C@H](O)[C@@H](C)/C=C(\C)[C@@H]1OC(N)=O)C2=O` [Alvespimycin] yielded a normalised viability of 95.1%.
With `NC(=O)Nc1cc(-c2cccc(F)c2)sc1C(=O)N[C@H]1CCCNC1` [AZD 7762] the normalised viability was 99.4%.

Same assay, conditions: 30 nM; incubation time: 72 h
`O=C1CCC(N2C(=O)c3ccccc3C2=O)C(=O)N1` (stereo unspecified) [Thalidomide] showed a normalised viability of 98.8%.
Molecule `C=C(c1ccc(C(=O)O)cc1)c1cc2c(cc1C)C(C)(C)CCC2(C)C` [Bexarotene] has a normalised viability of 91.6%.
Work on `CCC1(c2ccc(N)cc2)CCC(=O)NC1=O` (stereo unspecified) [Aminoglutethimide] yielded a normalised viability of 89.6%.
Work on `Clc1ccc(Nc2nnc(Cc3ccncc3)c3ccccc23)cc1` [Vatalanib] yielded a normalised viability of 87.6%.
